According to PMC11019538, “Biophysics-Guided Lead Discovery of HBV Capsid Assembly Modifiers” (ACS Infectious Diseases, 2024):
Read-outs that look alike come from different tables or passages of the source.

Assays:
[1] = system: HBV DNA replication in HepAD38 cells; assay: HBV DNA replication inhibition assay in HepAD38 cells (7 days, PCR of supernatant DNA); assay type: cell-based, hepatitis B virus; details: HepAD38 cells; for HBV DNA inhibition (%) at 10 µM: first round of selected compounds
Description: HepAD38 cells were seeded at 50,000 cells/well in collagen-coated 96-well plates. […] The experiment lasted 7 days. On day 7, total DNA was purified from the supernatant using a commercially available kit (DNeasy 96 Blood & Tissue kit, Qiagen). The HBV DNA was amplified in a polymerase chain reaction assay using LightCycler 480 II (Roche), as previously described.[63] All samples were tested in duplicate.

[2] = system: T lymphoblast CEM-CCRF (CEM) cells; assay: MTT cytotoxicity, CEM cells; assay type: cell-based, human
Description: (§1) Human peripheral blood mononuclear (PBM), T lymphoblast CEM-CCRF (herein referred to as CEM cells), African green monkey kidney (Vero), or human liver carcinoma (HepG2) cells were tested via MTT assay using the CellTiter 96 Non-Radioactive Cell Proliferation (Promega) kit as previously described.[63]

[3] = system: African green monkey kidney (Vero) cells; assay: MTT cytotoxicity, Vero cells; assay type: cell-based; details: Vero cells
Description: as §1

[4] = system: human peripheral blood mononuclear (PBM) cells; assay: MTT cytotoxicity, PBM cells; assay type: cell-based
Description: as §1

[5] = system: human liver carcinoma (HepG2) cells; assay: MTT cytotoxicity, HepG2 cells; assay type: cell-based; details: HepG2 cells
Description: as §1

[6] = trial 1, read-out: EC50, trial 1
[7] = trial 2, read-out: EC50, trial 2

Compound | HBV DNA inhibition (%) at 10 µM [1] [%] | % HBV DNA Inh. at 10 μM, trial 1 ([1]; trial 1) [%] | CC50 [2] [µM] | CC50 [3] [µM] | CC50 [4] [µM] | CC50 [5] [µM] | % HBV DNA Inh. at 10 μM, trial 2 ([1]; trial 2) [%] | EC50 [1, 6] [µM] | EC50 [1, 7] [µM] | % cytotoxicity at 100 µM (MTT), CEM cells [2] [%] | percent cytotoxicity (cell growth inhibition) at 100 µM ([4]; 100 µM) [%]
Nc1ccn([C@@H]2CS[C@H](CO)O2)c(=O)n1 [3TC, reference compound] | 97 | 82 | – | – | – | – | – | – | – | – | –
c1ccc(Cn2cc(-c3cccnc3)c(-c3nc(-c4ccccc4)c(-c4ccccc4)[nH]3)n2)cc1 [GT-34] | – | < 1 | 11 | 14 | 59 | 16 | < 1 | > 10 | > 10 | – | –
CC(NC(=O)c1cccnc1)c1ccccc1 (stereo not drawn) [GT-18] | < 1 | – | > 100 | > 100 | > 100 | > 100 | – | – | – | – | –
O=C(Cc1ccc(O)cc1)NCc1nc(-c2cccc(F)c2)c(-c2ccccn2)[nH]1 [GT-42] | – | < 1 | 1.4 | 13 | 3.5 | 5.4 | < 1 | > 10 | > 10 | – | –
O=C(CCc1ccccc1)Nc1cccnc1 [GT-15] | < 1 | – | > 100 | > 100 | > 100 | > 100 | – | – | – | – | –
Fc1ccccc1CNCc1ccccn1 [GT-14] | < 1 | – | > 100 | > 100 | > 100 | > 100 | – | – | – | – | –
O=C(NCCn1ccnc1)c1ccccn1 [GT-26] | < 1 | – | > 100 | > 100 | > 100 | > 100 | – | – | – | – | –
COc1cc(OC)c2cc(-c3nc4ccccc4[nH]3)c(-c3ccc(C)cc3)nc2c1 [GT-35] | – | 36 | > 100 | 42 | > 100 | 63 | 36 | > 10 | > 10 | 49 | 14
COc1ccc(-c2cc(C(=O)Oc3cccc(-c4cnc5ccccc5n4)c3)c3ccccc3n2)cc1 [GT-31] | – | < 1 | > 100 | 97 | 86 | 42 | < 1 | > 10 | > 10 | 36 | –
CCN(CC)CCCNc1cc(OC)c(Nc2ccccc2)c2cccnc12 [GT-49] | – | 45 | 9.4 | 16 | 27 | 17 | 45 | > 10 | > 10 | – | –
C=CC1CN2CCC1CC2C(O)c1ccnc2ccc(OC)cc12 (stereo not drawn) [GT-1] | < 1 | – | – | – | – | – | – | – | – | – | –
O=C(NCCc1ccccc1)c1cccnc1 [GT-13] | < 1 | – | > 100 | > 100 | > 100 | > 100 | – | – | – | – | –
NCc1ccc(F)c(COC2CCCC2)c1 [GT-22] | < 1 | – | 36.3 | 88.6 | > 100 | > 100 | – | – | – | – | –
NCc1ccc(N2CCC(CO)CC2)cc1 [GT-17] | < 1 | – | > 100 | > 100 | > 100 | > 100 | – | – | – | – | –
N#CC(c1ccccc1)C(C(Cc1ccccc1)=NO)c1ccccc1 (stereo not drawn) [GT-11] | < 1 | – | 13.3 | 18.9 | 63.9 | 31.6 | – | – | – | – | –
CC(CC(C#N)(c1ccccc1)c1ccccc1)N1CCCCC1 (stereo not drawn) [GT-2] | < 1 | – | 16.1 | > 100 | 85.3 | 26.4 | – | – | – | – | –
NCc1ccc(-c2ccccc2F)o1 [GT-19] | < 1 | – | > 100 | > 100 | > 100 | > 100 | – | – | – | – | –
CCN1CCN(C(=O)c2ccc(-c3nc4ccccc4nc3-c3ccccc3)cc2)CC1 [GT-30] | – | < 1 | 32 | 81 | 60 | 34 | < 1 | > 10 | > 10 | – | –
CC(O)(c1ccccc1)C(c1ccccc1)C1CCCCN1 (stereo not drawn) [GT-4] | < 1 | – | > 100 | > 100 | > 100 | > 100 | – | – | – | – | –
NCc1cccc(Oc2ccccc2)c1 [GT-21] | < 1 | – | 18.2 | 49.6 | > 100 | > 100 | – | – | – | – | –
